What was measured:
[1] = target: Mast/stem cell growth factor receptor Kit (Homo sapiens) (UniProt P10721); conditions: Compound concentration 100.0 nM
[2] = target: TRAF2 and NCK-interacting protein kinase (Homo sapiens) (UniProt Q9UKE5); conditions: Compound concentration 100.0 nM
[3] = tested on: Leucine-rich repeat serine/threonine-protein kinase 2 (Homo sapiens), Q5S007 [G2019S]; conditions: Compound concentration 100.0 nM
[4] = target: Cyclin-dependent kinase 2 homolog (Plasmodium falciparum (isolate 3D7)) (UniProt P61075); conditions: Compound concentration 100.0 nM
[5] = target: Ephrin type-B receptor 6 (Homo sapiens) (UniProt O15197); conditions: Compound concentration 100.0 nM
[6] = target: Ribosomal protein S6 kinase alpha-4 (Homo sapiens) (UniProt O75676); conditions: Compound concentration 100.0 nM
[7] = target: Macrophage colony-stimulating factor 1 receptor (Homo sapiens) (UniProt P07333); conditions: Compound concentration 100.0 nM
[8] = target: Dual specificity mitogen-activated protein kinase kinase 6 (Homo sapiens) (UniProt P52564); conditions: Compound concentration 100.0 nM
[9] = target: MAP/microtubule affinity-regulating kinase 3 (Homo sapiens) (UniProt P27448); conditions: Compound concentration 100.0 nM
[10] = target: T1, Tyrosine-protein kinase JAK3 (Homo sapiens) (UniProt P52333); conditions: Compound concentration 100.0 nM
T1 sequence (whole entry): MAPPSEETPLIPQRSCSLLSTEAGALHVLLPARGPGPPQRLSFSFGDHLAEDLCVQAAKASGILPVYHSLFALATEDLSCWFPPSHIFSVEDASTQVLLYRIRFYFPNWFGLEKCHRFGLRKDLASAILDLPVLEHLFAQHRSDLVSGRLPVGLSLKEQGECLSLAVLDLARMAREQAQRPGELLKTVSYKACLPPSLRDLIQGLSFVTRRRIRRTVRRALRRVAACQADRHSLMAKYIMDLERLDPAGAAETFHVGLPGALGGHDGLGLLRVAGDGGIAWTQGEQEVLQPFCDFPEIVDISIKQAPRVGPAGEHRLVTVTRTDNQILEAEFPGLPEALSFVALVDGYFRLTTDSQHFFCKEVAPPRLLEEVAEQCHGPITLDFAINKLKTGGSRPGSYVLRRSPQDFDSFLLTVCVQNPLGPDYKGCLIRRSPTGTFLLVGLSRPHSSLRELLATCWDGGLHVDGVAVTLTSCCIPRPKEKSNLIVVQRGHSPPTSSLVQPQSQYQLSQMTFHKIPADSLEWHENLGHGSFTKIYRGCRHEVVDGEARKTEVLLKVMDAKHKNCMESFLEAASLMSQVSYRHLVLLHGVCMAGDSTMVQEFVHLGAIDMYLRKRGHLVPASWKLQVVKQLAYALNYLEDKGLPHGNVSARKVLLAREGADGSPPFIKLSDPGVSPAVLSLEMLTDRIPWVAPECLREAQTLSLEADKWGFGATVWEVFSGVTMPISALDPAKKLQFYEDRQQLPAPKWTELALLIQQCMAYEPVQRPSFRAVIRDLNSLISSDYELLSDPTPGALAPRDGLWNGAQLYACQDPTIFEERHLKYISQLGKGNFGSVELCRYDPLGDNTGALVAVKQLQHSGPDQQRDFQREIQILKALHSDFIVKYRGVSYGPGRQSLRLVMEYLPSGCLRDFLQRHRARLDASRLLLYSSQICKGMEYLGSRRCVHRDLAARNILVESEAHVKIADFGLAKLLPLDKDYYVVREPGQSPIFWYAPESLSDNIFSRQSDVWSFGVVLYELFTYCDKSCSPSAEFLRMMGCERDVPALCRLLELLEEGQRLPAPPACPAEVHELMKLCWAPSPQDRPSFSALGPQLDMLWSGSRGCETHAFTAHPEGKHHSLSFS

[11] = tested on: Phosphatidylinositol 4,5-bisphosphate 3-kinase catalytic subunit alpha isoform (Homo sapiens), P42336 [I800L]; conditions: Compound concentration 100.0 nM
[12] = target: Mitogen-activated protein kinase 7 (Homo sapiens) (UniProt Q13164); conditions: Compound concentration 100.0 nM
Sequence of Mitogen-activated protein kinase 7 (Homo sapiens) (Q13164 2-816 limits assumed): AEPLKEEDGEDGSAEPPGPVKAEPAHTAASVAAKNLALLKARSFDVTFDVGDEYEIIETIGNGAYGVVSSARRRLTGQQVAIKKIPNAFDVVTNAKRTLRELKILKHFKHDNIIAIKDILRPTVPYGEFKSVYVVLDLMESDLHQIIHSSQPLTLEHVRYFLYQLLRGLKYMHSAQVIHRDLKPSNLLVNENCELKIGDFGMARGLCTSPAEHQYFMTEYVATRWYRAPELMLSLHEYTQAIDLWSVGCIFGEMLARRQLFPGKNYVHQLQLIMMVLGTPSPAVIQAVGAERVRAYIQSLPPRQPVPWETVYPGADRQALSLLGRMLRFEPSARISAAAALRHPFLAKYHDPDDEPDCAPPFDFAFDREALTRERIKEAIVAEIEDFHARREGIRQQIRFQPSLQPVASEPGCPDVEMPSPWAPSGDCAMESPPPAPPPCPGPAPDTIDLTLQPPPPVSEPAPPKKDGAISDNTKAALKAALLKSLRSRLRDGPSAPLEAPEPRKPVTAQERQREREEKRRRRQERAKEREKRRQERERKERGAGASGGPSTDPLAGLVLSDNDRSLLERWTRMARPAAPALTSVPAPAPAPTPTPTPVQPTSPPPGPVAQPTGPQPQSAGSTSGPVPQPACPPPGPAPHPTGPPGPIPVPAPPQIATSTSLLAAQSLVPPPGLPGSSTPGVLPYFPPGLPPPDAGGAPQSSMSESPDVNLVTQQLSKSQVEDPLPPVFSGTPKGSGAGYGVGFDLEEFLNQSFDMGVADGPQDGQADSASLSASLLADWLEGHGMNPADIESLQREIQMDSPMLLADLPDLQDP

[13] = target: Dual specificity mitogen-activated protein kinase kinase 4 (Homo sapiens) (UniProt P45985); conditions: Compound concentration 100.0 nM
[14] = tested on: Phosphatidylinositol 4,5-bisphosphate 3-kinase catalytic subunit alpha isoform (Homo sapiens), P42336 [C420R]; conditions: Compound concentration 100.0 nM
[15] = target: Mitogen-activated protein kinase kinase kinase 20 (Homo sapiens) (UniProt Q9NYL2); conditions: Compound concentration 100.0 nM
[16] = target: Muscle, skeletal receptor tyrosine-protein kinase (Homo sapiens) (UniProt O15146); conditions: Compound concentration 100.0 nM
[17] = tested on: Receptor-type tyrosine-protein kinase FLT3 (Homo sapiens), P36888 [D835Y]; conditions: Compound concentration 100.0 nM
[18] = target: Serine/threonine-protein kinase NIM1 (Homo sapiens) (UniProt Q8IY84); conditions: Compound concentration 100.0 nM
Sequence of Serine/threonine-protein kinase NIM1 (Homo sapiens) (Q8IY84 whole entry): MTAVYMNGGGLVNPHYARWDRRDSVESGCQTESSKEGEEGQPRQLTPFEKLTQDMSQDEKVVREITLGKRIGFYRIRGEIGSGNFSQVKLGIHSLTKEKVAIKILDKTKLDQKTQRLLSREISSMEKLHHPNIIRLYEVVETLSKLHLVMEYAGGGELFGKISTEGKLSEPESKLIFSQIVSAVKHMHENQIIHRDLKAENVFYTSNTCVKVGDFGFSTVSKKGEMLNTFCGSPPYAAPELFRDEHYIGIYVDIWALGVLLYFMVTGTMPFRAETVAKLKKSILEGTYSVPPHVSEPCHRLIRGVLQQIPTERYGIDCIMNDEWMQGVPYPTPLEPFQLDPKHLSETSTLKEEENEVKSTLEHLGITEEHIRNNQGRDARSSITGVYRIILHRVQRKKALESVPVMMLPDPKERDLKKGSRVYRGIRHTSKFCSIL

[19] = target: Serine/threonine-protein kinase N1 (Homo sapiens) (UniProt Q16512); conditions: Compound concentration 100.0 nM
Sequence of Serine/threonine-protein kinase N1 (Homo sapiens) (Q16512 2-942 limits assumed): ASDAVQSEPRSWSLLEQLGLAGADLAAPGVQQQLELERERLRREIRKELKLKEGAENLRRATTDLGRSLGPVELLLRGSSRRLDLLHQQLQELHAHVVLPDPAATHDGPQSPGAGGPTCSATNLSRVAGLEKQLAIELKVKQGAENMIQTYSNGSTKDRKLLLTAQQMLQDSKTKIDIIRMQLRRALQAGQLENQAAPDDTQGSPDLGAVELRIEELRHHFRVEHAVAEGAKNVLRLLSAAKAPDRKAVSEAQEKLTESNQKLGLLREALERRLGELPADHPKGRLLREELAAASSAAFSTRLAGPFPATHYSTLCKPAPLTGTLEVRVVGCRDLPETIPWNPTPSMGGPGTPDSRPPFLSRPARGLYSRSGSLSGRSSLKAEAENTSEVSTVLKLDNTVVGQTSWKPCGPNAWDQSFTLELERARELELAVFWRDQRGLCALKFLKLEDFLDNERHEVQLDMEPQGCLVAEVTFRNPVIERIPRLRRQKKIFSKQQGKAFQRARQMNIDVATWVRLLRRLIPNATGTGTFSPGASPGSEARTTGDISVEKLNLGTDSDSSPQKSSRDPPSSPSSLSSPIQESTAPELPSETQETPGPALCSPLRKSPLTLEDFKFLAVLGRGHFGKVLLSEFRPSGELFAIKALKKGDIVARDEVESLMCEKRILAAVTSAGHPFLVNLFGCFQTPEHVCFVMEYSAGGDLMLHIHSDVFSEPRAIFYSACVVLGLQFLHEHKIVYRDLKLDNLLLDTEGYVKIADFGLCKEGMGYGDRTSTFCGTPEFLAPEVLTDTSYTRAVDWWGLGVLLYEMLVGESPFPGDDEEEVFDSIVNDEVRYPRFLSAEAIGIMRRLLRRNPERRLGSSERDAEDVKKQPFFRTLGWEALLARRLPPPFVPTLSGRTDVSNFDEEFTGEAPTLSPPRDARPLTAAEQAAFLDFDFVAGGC

[20] = target: Cyclin-dependent kinase 4 (Homo sapiens) (UniProt P11802); conditions: Compound concentration 100.0 nM
[21] = target: Serine/threonine-protein kinase MARK2 (Homo sapiens) (UniProt Q7KZI7); conditions: Compound concentration 100.0 nM
[22] = target: Maternal embryonic leucine zipper kinase (Homo sapiens) (UniProt Q14680); conditions: Compound concentration 100.0 nM
Sequence of Maternal embryonic leucine zipper kinase (Homo sapiens) (Q14680 whole entry, looked up): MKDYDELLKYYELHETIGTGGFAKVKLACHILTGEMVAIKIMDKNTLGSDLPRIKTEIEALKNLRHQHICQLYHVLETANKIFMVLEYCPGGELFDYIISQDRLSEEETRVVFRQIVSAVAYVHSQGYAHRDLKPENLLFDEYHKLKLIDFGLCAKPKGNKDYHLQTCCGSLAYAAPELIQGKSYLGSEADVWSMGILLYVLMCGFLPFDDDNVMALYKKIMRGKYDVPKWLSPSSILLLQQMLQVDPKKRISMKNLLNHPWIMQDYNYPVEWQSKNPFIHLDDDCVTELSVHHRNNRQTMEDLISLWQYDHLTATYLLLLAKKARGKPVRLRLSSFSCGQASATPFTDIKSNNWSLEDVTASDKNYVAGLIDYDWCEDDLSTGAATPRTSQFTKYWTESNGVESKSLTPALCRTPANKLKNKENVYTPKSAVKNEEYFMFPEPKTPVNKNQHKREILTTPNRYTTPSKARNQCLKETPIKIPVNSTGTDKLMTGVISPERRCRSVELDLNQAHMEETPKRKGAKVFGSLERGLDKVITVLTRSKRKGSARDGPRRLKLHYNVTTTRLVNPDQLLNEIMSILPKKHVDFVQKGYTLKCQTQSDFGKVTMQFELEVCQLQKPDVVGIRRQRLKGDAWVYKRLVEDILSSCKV

[23] = target: Rhodopsin kinase GRK1 (Homo sapiens) (UniProt Q15835); conditions: Compound concentration 100.0 nM
[24] = target: Platelet-derived growth factor receptor alpha (Homo sapiens) (UniProt P16234); conditions: Compound concentration 100.0 nM
[25] = target: Platelet-derived growth factor receptor beta (Homo sapiens) (UniProt P09619); conditions: Compound concentration 100.0 nM
Sequence of Platelet-derived growth factor receptor beta (Homo sapiens) (P09619 whole entry, canonical isoform): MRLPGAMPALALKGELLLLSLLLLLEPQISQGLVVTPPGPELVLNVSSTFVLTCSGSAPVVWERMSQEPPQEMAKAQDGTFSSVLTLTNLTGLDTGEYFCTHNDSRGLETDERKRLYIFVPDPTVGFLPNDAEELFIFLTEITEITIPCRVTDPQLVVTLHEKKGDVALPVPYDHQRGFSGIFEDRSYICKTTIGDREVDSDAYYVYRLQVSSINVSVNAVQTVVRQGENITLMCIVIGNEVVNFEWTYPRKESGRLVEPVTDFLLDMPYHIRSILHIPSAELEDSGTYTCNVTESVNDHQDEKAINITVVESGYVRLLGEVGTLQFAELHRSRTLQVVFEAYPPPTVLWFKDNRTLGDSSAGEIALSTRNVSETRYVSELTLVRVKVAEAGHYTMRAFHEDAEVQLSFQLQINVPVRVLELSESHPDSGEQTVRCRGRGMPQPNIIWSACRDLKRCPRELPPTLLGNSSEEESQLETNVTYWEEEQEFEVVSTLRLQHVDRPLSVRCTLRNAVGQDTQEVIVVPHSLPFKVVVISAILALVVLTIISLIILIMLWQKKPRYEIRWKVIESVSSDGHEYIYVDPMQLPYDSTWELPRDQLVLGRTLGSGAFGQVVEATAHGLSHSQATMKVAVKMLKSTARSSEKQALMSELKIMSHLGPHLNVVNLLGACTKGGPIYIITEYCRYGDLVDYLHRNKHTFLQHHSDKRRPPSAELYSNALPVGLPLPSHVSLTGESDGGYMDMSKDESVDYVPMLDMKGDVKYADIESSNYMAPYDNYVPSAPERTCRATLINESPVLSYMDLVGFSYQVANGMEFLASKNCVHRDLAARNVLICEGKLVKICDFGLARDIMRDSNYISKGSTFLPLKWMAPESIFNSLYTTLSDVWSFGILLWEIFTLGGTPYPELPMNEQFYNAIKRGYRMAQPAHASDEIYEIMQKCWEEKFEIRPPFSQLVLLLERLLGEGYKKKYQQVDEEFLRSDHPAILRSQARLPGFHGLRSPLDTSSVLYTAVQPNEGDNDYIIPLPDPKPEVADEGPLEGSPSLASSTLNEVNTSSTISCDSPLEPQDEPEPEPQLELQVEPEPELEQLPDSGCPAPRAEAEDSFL

[26] = target: Casein kinase I isoform delta (Homo sapiens) (UniProt P48730); conditions: Compound concentration 100.0 nM
[27] = target: Histamine H3 receptor (Homo sapiens) (UniProt Q9Y5N1); conditions: Compound concentration 10.0 uM
[28] = target: Tyrosine-protein kinase JAK1 (Homo sapiens) (UniProt P23458); conditions: Compound concentration 100.0 nM
[29] = target: Serine/threonine-protein kinase WNK4 (Homo sapiens) (UniProt Q96J92); conditions: Compound concentration 100.0 nM
[30] = target: Calcium/calmodulin-dependent protein kinase type 1B (Homo sapiens) (UniProt Q6P2M8); conditions: Compound concentration 100.0 nM

Sequence of Mast/stem cell growth factor receptor Kit (Homo sapiens) (P10721 whole entry): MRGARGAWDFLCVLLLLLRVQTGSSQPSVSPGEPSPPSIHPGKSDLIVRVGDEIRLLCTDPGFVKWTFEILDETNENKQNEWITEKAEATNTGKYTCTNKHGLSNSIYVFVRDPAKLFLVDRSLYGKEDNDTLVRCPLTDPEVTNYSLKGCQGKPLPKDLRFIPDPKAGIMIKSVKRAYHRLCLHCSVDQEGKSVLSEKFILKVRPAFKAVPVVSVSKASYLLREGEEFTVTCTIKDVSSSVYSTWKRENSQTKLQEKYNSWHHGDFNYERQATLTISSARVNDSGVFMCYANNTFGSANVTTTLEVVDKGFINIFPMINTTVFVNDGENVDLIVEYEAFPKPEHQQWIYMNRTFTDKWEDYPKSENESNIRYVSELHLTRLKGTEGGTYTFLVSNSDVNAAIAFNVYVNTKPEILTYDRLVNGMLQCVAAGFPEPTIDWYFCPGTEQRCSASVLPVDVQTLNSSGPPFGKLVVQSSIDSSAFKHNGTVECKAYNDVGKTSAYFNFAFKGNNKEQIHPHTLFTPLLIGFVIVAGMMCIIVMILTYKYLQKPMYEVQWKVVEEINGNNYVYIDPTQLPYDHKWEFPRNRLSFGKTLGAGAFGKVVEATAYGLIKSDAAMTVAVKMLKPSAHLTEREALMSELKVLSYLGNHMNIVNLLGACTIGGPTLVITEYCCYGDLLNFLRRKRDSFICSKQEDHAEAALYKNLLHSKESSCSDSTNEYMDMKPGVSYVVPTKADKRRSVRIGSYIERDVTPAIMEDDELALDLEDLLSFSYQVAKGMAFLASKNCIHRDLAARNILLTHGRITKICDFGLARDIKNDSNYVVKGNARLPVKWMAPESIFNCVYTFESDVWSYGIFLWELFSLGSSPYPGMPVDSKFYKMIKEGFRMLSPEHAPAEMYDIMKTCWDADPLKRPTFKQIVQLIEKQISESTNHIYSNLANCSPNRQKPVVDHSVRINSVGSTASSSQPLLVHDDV

CCOC(=O)c1cc2cc(-c3cc(C(=O)NCc4ccc(C(=O)O)cc4)nn3C)ccc2[nH]1 [BI 4394]
inactive: residual activity [1] 83% | residual activity [2] 100% | residual activity [3] 83% | residual activity [4] 65% | residual activity [5] 77% | residual activity [6] 86% | residual activity [7] 94% | residual activity [8] 100% | residual activity [9] 93% | residual activity [10] 82% | residual activity [11] 93% | residual activity [12] 100% | residual activity [13] 93% | residual activity [14] 83% | residual activity [15] 87% | residual activity [16] 64% | residual activity [17] 92% | residual activity [18] 79% | residual activity [19] 100% | residual activity [20] 74% | residual activity [21] 100% | residual activity [22] 100% | residual activity [23] 95% | residual activity [24] 86% | residual activity [25] 86% | residual activity [26] 81% | inhibition [27] 8.18% | residual activity [28] 100% | residual activity [29] 97% | residual activity [30] 97%

Cn1nc(C(=O)NCc2ccc(C(=O)O)cc2)cc1-c1ccc2[nH]ccc2c1 [BI 4395]
inactive: residual activity [1] 90% | residual activity [2] 97% | residual activity [3] 70% | residual activity [4] 74% | residual activity [5] 96% | residual activity [6] 81% | residual activity [7] 98% | residual activity [8] 100% | residual activity [9] 81% | residual activity [10] 65% | residual activity [11] 100% | residual activity [12] 87% | residual activity [13] 79% | residual activity [14] 84% | residual activity [15] 80% | residual activity [16] 95% | residual activity [17] 81% | residual activity [18] 78% | residual activity [19] 90% | residual activity [20] 88% | residual activity [21] 100% | residual activity [22] 86% | residual activity [23] 100% | residual activity [24] 100% | residual activity [25] 96% | residual activity [26] 84% | inhibition [27] -4.12% | residual activity [28] 93% | residual activity [29] 100% | residual activity [30] 100%

From ChEMBL document CHEMBL4507281, “Data for DCP probe BI-4394” (2021)
